According to article PMC12621043, “Un-LOK-ing a New Approach for Conformational Selective Targeting of STK10 (LOK)” (ACS Medicinal Chemistry Letters, 2025):

Target: T1, STK10 (Homo sapiens, UniProt O94804)
T1 construct: purchased in-house DSF kinase panel (SGC-style construct names; the trailing letter is the construct ID)
Experiment: PhosphoSens in vitro activity assay
Format: biochemical
Settings: ATP 160 μM

T1 sequence (O94804 18-317 limits assumed): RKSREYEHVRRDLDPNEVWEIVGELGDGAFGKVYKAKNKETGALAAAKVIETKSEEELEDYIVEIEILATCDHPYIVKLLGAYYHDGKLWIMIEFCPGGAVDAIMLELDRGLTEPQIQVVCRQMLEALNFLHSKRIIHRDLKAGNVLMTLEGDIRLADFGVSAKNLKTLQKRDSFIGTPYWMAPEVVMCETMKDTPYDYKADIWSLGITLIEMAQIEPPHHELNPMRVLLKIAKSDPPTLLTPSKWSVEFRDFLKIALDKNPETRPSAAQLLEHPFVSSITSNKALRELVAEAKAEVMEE

SMILES	IC50 [µM]
COc1ccc(CNC(=O)Nc2ccc3cc2OCCOCCNc2ccn4ncc-3c4n2)cc1 [compound 31]	2.74 ± 0.47
COc1ccc(CNC(=O)Nc2ccc3cc2OCCOCCNc2ccn4ncc-3c4n2)cc1F [compound 32]	3.33 ± 0.66
COc1cc(CNC(=O)Nc2ccc3cc2OCCOCCNc2ccn4ncc-3c4n2)ccc1F [compound 33]	2.34 ± 0.79
C[C@H](NC(=O)Nc1ccc2cc1OCCOCCNc1ccn3ncc-2c3n1)c1ccccc1 [compound 34]	10.2

Target: T2, GSG2A (Homo sapiens, UniProt Q8TF76)
T2 construct: purchased in-house DSF kinase panel (SGC-style construct names; the trailing letter is the construct ID)
T2 sequence (Q8TF76 465-798): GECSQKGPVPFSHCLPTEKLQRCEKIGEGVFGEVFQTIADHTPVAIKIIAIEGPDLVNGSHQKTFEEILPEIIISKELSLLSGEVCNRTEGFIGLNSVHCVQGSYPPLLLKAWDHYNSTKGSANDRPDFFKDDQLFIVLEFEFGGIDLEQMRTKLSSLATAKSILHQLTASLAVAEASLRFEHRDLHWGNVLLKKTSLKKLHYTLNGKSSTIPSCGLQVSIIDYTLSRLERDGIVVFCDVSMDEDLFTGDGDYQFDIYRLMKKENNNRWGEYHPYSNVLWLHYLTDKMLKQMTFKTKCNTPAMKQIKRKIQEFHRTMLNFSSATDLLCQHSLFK
Experiment: DSF Tm panel
Format: binding
Settings: 10 μM compound

SMILES	ΔTm at 10 µM [°C]
COc1ccc(CNC(=O)Nc2ccc3cc2OCCOCCNc2ccn4ncc-3c4n2)cc1 [compound 31]	1.2
COc1ccc(CNC(=O)Nc2ccc3cc2OCCOCCNc2ccn4ncc-3c4n2)cc1F [compound 32]	1
COc1cc(CNC(=O)Nc2ccc3cc2OCCOCCNc2ccn4ncc-3c4n2)ccc1F [compound 33]	2.8
C[C@H](NC(=O)Nc1ccc2cc1OCCOCCNc1ccn3ncc-2c3n1)c1ccccc1 [compound 34]	0.1
CN1CCN(C(=O)Nc2ccc3cc2OCCOCCNc2ccn4ncc-3c4n2)CC1 [compound 35]	1.3

Target: T3, CAMKK2B (Homo sapiens, UniProt Q96RR4)
T3 construct: purchased in-house DSF kinase panel (SGC-style construct names; the trailing letter is the construct ID)
Experiment: DSF Tm panel
Format: binding
Settings: 10 μM compound

T3 sequence (Q96RR4 161-449): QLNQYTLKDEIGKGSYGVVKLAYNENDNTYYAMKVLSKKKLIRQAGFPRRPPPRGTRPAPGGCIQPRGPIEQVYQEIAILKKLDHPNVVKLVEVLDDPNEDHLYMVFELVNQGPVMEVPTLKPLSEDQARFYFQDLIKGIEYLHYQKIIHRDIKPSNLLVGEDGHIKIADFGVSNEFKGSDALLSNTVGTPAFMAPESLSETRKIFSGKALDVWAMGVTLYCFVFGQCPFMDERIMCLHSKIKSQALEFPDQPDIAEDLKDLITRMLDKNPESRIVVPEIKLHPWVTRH

SMILES	ΔTm at 10 µM [°C]
COc1ccc(CNC(=O)Nc2ccc3cc2OCCOCCNc2ccn4ncc-3c4n2)cc1 [compound 31]	1.8
COc1ccc(CNC(=O)Nc2ccc3cc2OCCOCCNc2ccn4ncc-3c4n2)cc1F [compound 32]	1.8
COc1cc(CNC(=O)Nc2ccc3cc2OCCOCCNc2ccn4ncc-3c4n2)ccc1F [compound 33]	3.2
C[C@H](NC(=O)Nc1ccc2cc1OCCOCCNc1ccn3ncc-2c3n1)c1ccccc1 [compound 34]	0.6
CN1CCN(C(=O)Nc2ccc3cc2OCCOCCNc2ccn4ncc-3c4n2)CC1 [compound 35]	2.9

Target: T4, PDK4A (Homo sapiens, UniProt Q16654)
T4 construct: purchased in-house DSF kinase panel (SGC-style construct names; the trailing letter is the construct ID)
Experiment: DSF Tm panel
Format: binding
Settings: 10 μM compound

T4 sequence (Q16654 whole entry): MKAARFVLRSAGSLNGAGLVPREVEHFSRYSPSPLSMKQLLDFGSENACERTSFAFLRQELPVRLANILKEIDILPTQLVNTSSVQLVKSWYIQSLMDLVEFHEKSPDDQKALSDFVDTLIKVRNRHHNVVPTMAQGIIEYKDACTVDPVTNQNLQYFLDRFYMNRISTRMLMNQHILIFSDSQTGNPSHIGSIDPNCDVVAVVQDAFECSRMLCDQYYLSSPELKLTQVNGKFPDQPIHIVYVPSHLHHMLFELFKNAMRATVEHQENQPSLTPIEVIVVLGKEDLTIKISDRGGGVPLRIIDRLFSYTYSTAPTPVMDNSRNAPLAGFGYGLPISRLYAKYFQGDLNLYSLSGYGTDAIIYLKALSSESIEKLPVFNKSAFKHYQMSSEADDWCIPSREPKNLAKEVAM

SMILES	ΔTm at 10 µM [°C]
CN1CCN(C(=O)Nc2ccc3cc2OCCOCCNc2ccn4ncc-3c4n2)CC1 [compound 35]	0.5

Target: T5, MAPKAPK2A (Homo sapiens, UniProt P49137)
T5 construct: purchased in-house DSF kinase panel (SGC-style construct names; the trailing letter is the construct ID)
Experiment: DSF Tm panel
Format: binding
Settings: 10 μM compound

T5 sequence (P49137 64-325): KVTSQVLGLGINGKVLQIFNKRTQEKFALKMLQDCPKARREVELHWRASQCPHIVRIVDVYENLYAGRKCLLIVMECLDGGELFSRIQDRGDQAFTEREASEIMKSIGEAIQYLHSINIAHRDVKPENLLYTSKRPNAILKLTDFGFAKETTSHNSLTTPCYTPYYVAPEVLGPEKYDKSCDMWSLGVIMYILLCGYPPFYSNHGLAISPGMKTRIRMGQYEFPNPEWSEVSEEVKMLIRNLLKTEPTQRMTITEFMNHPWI

SMILES	ΔTm at 10 µM [°C]
COc1ccc(CNC(=O)Nc2ccc3cc2OCCOCCNc2ccn4ncc-3c4n2)cc1 [compound 31]	0.2
COc1ccc(CNC(=O)Nc2ccc3cc2OCCOCCNc2ccn4ncc-3c4n2)cc1F [compound 32]	0.2
COc1cc(CNC(=O)Nc2ccc3cc2OCCOCCNc2ccn4ncc-3c4n2)ccc1F [compound 33]	0.1
C[C@H](NC(=O)Nc1ccc2cc1OCCOCCNc1ccn3ncc-2c3n1)c1ccccc1 [compound 34]	0.1

Target: T6, MAP2K7A (Homo sapiens, UniProt O14733)
T6 construct: purchased in-house DSF kinase panel (SGC-style construct names; the trailing letter is the construct ID)
T6 sequence (O14733 120-400): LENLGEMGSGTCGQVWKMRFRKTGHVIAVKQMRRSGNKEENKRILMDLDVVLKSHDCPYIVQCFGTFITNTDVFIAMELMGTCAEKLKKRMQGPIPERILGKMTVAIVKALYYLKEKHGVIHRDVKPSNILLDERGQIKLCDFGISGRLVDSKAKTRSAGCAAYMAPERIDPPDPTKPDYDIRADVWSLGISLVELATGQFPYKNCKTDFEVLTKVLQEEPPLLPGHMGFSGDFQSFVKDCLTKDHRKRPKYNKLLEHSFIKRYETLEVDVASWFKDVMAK
Experiment: DSF Tm panel
Format: binding
Settings: 10 μM compound

SMILES	ΔTm at 10 µM [°C]
COc1ccc(CNC(=O)Nc2ccc3cc2OCCOCCNc2ccn4ncc-3c4n2)cc1 [compound 31]	0.5
COc1ccc(CNC(=O)Nc2ccc3cc2OCCOCCNc2ccn4ncc-3c4n2)cc1F [compound 32]	0.5
COc1cc(CNC(=O)Nc2ccc3cc2OCCOCCNc2ccn4ncc-3c4n2)ccc1F [compound 33]	0
C[C@H](NC(=O)Nc1ccc2cc1OCCOCCNc1ccn3ncc-2c3n1)c1ccccc1 [compound 34]	0

Target: T7, MARK4A (Homo sapiens, UniProt Q96L34)
T7 construct: purchased in-house DSF kinase panel (SGC-style construct names; the trailing letter is the construct ID)
Experiment: DSF Tm panel
Format: binding
Settings: 10 μM compound

T7 sequence (Q96L34 59-310): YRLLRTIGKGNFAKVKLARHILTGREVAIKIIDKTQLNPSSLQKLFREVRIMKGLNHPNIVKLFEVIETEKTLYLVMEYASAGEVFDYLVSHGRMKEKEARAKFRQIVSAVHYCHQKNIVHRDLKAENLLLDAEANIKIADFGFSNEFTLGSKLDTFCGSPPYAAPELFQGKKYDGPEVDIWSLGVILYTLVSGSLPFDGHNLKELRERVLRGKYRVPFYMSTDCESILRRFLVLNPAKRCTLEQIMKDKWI

SMILES	ΔTm at 10 µM [°C]
COc1ccc(CNC(=O)Nc2ccc3cc2OCCOCCNc2ccn4ncc-3c4n2)cc1 [compound 31]	2
COc1ccc(CNC(=O)Nc2ccc3cc2OCCOCCNc2ccn4ncc-3c4n2)cc1F [compound 32]	2.5
COc1cc(CNC(=O)Nc2ccc3cc2OCCOCCNc2ccn4ncc-3c4n2)ccc1F [compound 33]	2.2
C[C@H](NC(=O)Nc1ccc2cc1OCCOCCNc1ccn3ncc-2c3n1)c1ccccc1 [compound 34]	0.9
CN1CCN(C(=O)Nc2ccc3cc2OCCOCCNc2ccn4ncc-3c4n2)CC1 [compound 35]	0.8

Tested on: RPS6KA5A
Experiment: DSF Tm panel
Format: binding
Settings: 10 μM compound
Experimental: The synthesized urea-based derivatives were evaluated in a panel of kinases by differential scanning fluorescence (DSF) to investigate their selectivity profile. A positive ΔT m in the DSF assay indicates stabilization of the protein upon ligand binding in comparison to its apo state, with higher thermal shifts generally correlating with stronger binding. For this purpose, we used our internal kinase selectivity panel (∼90 kinases) along with staurosporine as a positive control. […]
was performed as previously described.[1,2] Briefly, recombinant protein kinase domains at a concentration of 2 μM were mixed with 10 μM compound in a buffer containing 20 mM HEPES, […]
probe (1 µl per mL). Subsequently, temperature-dependent protein unfolding profiles were […]
The temperature was raised with a step rate of 3 °C per minute. […]
inflection point of the transition curve. […]
previously.[3] In brief, STK10, STK3, STK4 and SLK were obtained as plasmids cloned in […]
Plasmids were transfected into
KD concentration taken from TracerDB (tracerdb.org)[4] were pipetted into white 384-well

SMILES	ΔTm RPS6KA5A
COc1ccc(CNC(=O)Nc2ccc3cc2OCCOCCNc2ccn4ncc-3c4n2)cc1F [compound 32]	1,1 °C
COc1cc(CNC(=O)Nc2ccc3cc2OCCOCCNc2ccn4ncc-3c4n2)ccc1F [compound 33]	0,7 °C
C[C@H](NC(=O)Nc1ccc2cc1OCCOCCNc1ccn3ncc-2c3n1)c1ccccc1 [compound 34]	0,6 °C

Target: T8, MAPK8B (Homo sapiens, UniProt P45983)
T8 construct: purchased in-house DSF kinase panel (SGC-style construct names; the trailing letter is the construct ID)
Experiment: DSF Tm panel
Format: binding
Settings: 10 μM compound

T8 sequence (P45983 1-364): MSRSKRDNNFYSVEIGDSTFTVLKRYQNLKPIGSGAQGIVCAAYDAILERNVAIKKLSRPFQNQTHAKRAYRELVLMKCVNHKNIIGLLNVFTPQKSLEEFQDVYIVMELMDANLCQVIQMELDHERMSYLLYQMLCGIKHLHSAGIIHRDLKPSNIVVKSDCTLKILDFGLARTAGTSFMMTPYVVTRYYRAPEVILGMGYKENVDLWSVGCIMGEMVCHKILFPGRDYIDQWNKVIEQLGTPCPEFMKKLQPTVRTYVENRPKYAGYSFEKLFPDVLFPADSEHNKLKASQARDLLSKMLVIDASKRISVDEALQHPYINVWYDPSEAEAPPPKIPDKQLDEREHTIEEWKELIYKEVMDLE

SMILES	ΔTm at 10 µM [°C]
COc1ccc(CNC(=O)Nc2ccc3cc2OCCOCCNc2ccn4ncc-3c4n2)cc1 [compound 31]	1.1
COc1ccc(CNC(=O)Nc2ccc3cc2OCCOCCNc2ccn4ncc-3c4n2)cc1F [compound 32]	0.8
COc1cc(CNC(=O)Nc2ccc3cc2OCCOCCNc2ccn4ncc-3c4n2)ccc1F [compound 33]	0.9
C[C@H](NC(=O)Nc1ccc2cc1OCCOCCNc1ccn3ncc-2c3n1)c1ccccc1 [compound 34]	0.9

Target: T9, NEK7A (Homo sapiens, UniProt Q8TDX7)
T9 construct: purchased in-house DSF kinase panel (SGC-style construct names; the trailing letter is the construct ID)
Experiment: DSF Tm panel
Format: binding
Settings: 10 μM compound

T9 sequence (Q8TDX7 whole entry): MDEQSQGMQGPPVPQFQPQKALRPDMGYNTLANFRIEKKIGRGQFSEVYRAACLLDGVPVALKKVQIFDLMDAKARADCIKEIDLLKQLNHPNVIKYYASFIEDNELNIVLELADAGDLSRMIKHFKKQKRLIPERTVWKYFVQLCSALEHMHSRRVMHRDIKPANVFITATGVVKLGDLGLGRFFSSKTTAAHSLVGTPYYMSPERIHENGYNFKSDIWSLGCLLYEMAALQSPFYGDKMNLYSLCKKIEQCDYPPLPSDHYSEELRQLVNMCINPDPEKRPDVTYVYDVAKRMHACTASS

SMILES	ΔTm at 10 µM [°C]
COc1ccc(CNC(=O)Nc2ccc3cc2OCCOCCNc2ccn4ncc-3c4n2)cc1 [compound 31]	0.6
COc1ccc(CNC(=O)Nc2ccc3cc2OCCOCCNc2ccn4ncc-3c4n2)cc1F [compound 32]	1.3
COc1cc(CNC(=O)Nc2ccc3cc2OCCOCCNc2ccn4ncc-3c4n2)ccc1F [compound 33]	1.4
C[C@H](NC(=O)Nc1ccc2cc1OCCOCCNc1ccn3ncc-2c3n1)c1ccccc1 [compound 34]	0.9

Target: T10, MST3A (Homo sapiens, UniProt Q9Y6E0)
T10 construct: purchased in-house DSF kinase panel (SGC-style construct names; the trailing letter is the construct ID)
Experiment: DSF Tm panel
Format: binding
Settings: 10 μM compound

T10 sequence (Q9Y6E0 whole entry): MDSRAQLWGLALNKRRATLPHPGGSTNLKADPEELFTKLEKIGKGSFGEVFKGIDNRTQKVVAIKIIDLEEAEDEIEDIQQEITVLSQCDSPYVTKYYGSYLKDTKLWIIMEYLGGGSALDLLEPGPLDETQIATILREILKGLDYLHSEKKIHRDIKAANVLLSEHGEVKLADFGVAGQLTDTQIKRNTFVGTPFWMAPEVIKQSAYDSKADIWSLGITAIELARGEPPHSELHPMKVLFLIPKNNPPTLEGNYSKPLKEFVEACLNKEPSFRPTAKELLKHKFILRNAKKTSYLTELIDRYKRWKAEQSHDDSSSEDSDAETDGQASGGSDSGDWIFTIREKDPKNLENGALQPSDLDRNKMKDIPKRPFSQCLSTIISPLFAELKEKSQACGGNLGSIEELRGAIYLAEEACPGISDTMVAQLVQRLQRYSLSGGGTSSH

SMILES	ΔTm at 10 µM [°C]
COc1ccc(CNC(=O)Nc2ccc3cc2OCCOCCNc2ccn4ncc-3c4n2)cc1 [compound 31]	-5.3
COc1ccc(CNC(=O)Nc2ccc3cc2OCCOCCNc2ccn4ncc-3c4n2)cc1F [compound 32]	-6.4
COc1cc(CNC(=O)Nc2ccc3cc2OCCOCCNc2ccn4ncc-3c4n2)ccc1F [compound 33]	-5.3
C[C@H](NC(=O)Nc1ccc2cc1OCCOCCNc1ccn3ncc-2c3n1)c1ccccc1 [compound 34]	-7.8
CN1CCN(C(=O)Nc2ccc3cc2OCCOCCNc2ccn4ncc-3c4n2)CC1 [compound 35]	0.4
